ChEMBL document CHEMBL3045868, “Synthesis and antibacterial activities of para-alkoxy phenyl--ketoaldehyde derivatives” (Med Chem Res, 2013)
Converted amounts (≈) assume the structure as drawn.

Columns and labels:
Format in all cases: functional
[1] = test system: Escherichia coli; test: Antibacterial activity against Escherichia coli ATCC 25922 assessed as growth inhibition after 16 to 18 hr NCCLS agar dilution method
[2] = test system: Staphylococcus aureus; test: Antibacterial activity against Staphylococcus aureus clinical isolate assessed as growth inhibition after 16 to 18 hr by NCCLS agar dilution method
[3] = test system: Staphylococcus aureus; test: Bactericidal activity against Staphylococcus aureus clinical isolate 10 after 24 hr; conditions: isolate 10, 24 h
[4] = test system: Staphylococcus aureus; test: Antibacterial activity against Staphylococcus aureus clinical isolate 10 assessed as growth inhibition after 16 to 18 hr by NCCLS agar dilution method
[5] = test system: Staphylococcus aureus; test: Bactericidal activity against Staphylococcus aureus clinical isolate 7 after 24 hr; conditions: isolate 7, 24 h
[6] = test system: Staphylococcus aureus; test: Bactericidal activity against methicillin-resistant Staphylococcus aureus isolate 3 after 24 hr; conditions: isolate 3, 24 h
[7] = test system: Staphylococcus aureus; test: Bactericidal activity against Staphylococcus aureus clinical isolate 6 after 24 hr; conditions: isolate 6, 24 h
[8] = test system: Staphylococcus aureus; test: Bactericidal activity against Staphylococcus aureus clinical isolate 2 after 24 hr; conditions: isolate 2, 24 h
[9] = test system: Staphylococcus aureus; test: Bactericidal activity against Staphylococcus aureus clinical isolate 4 after 24 hr; conditions: isolate 4, 24 h
[10] = test system: Staphylococcus aureus; test: Antibacterial activity against Staphylococcus aureus clinical isolate 9 assessed as growth inhibition after 16 to 18 hr by NCCLS agar dilution method
[11] = test system: Staphylococcus aureus; test: Antibacterial activity against methicillin-resistant Staphylococcus aureus isolate 2 assessed as growth inhibition after 16 to 18 hr by NCCLS agar dilution method
[12] = test system: Staphylococcus aureus; test: Antibacterial activity against methicillin-resistant Staphylococcus aureus assessed as growth inhibition after 16 to 18 hr by NCCLS agar dilution method
[13] = test system: Staphylococcus aureus; test: Bactericidal activity against methicillin-resistant Staphylococcus aureus after 24 hr
[14] = test system: Staphylococcus aureus; test: Bactericidal activity against Staphylococcus aureus clinical isolate 3 after 24 hr; conditions: isolate 3, 24 h
[15] = test system: Staphylococcus aureus; test: Antibacterial activity against methicillin-resistant Staphylococcus aureus isolate 4 assessed as growth inhibition after 16 to 18 hr by NCCLS agar dilution method
[16] = test system: Staphylococcus aureus; test: Bactericidal activity against methicillin-resistant Staphylococcus aureus isolate 4 after 24 hr; conditions: isolate 4, 24 h
[17] = test system: Staphylococcus aureus; test: Antibacterial activity against methicillin-resistant Staphylococcus aureus isolate 5 assessed as growth inhibition after 16 to 18 hr by NCCLS agar dilution method
[18] = test system: Staphylococcus aureus; test: Bactericidal activity against methicillin-resistant Staphylococcus aureus isolate 2 after 24 hr; conditions: isolate 2, 24 h
[19] = test system: Staphylococcus aureus; test: Bactericidal activity against methicillin-resistant Staphylococcus aureus isolate 1 after 24 hr; conditions: isolate 1, 24 h
[20] = test system: Staphylococcus aureus; test: Antibacterial activity against Staphylococcus aureus clinical isolate 3 assessed as growth inhibition after 16 to 18 hr by NCCLS agar dilution method
[21] = test system: Staphylococcus aureus; test: Bactericidal activity against Staphylococcus aureus clinical isolate 1 after 24 hr; conditions: isolate 1, 24 h
[22] = test system: Staphylococcus aureus; test: Antibacterial activity against methicillin-resistant Staphylococcus aureus isolate 1 assessed as growth inhibition after 16 to 18 hr by NCCLS agar dilution method
[23] = test system: Staphylococcus aureus; test: Bactericidal activity against methicillin-resistant Staphylococcus aureus isolate 5 after 24 hr; conditions: isolate 5, 24 h
[24] = test system: Staphylococcus aureus; test: Antibacterial activity against Staphylococcus aureus ATCC 25923 assessed as growth inhibition after 16 to 18 hr by NCCLS agar dilution method
[25] = test system: Staphylococcus aureus; test: Bactericidal activity against Staphylococcus aureus clinical isolate 9 after 24 hr; conditions: isolate 9, 24 h
[26] = test system: Staphylococcus aureus; test: Antibacterial activity against methicillin-resistant Staphylococcus aureus isolate 3 assessed as growth inhibition after 16 to 18 hr by NCCLS agar dilution method
[27] = test system: Staphylococcus aureus; test: Antibacterial activity against Staphylococcus aureus clinical isolate 8 assessed as growth inhibition after 16 to 18 hr by NCCLS agar dilution method
[28] = test system: Staphylococcus aureus; test: Antibacterial activity against Staphylococcus aureus clinical isolate 2 assessed as growth inhibition after 16 to 18 hr by NCCLS agar dilution method
[29] = test system: Staphylococcus aureus; test: Antibacterial activity against Staphylococcus aureus clinical isolate 7 assessed as growth inhibition after 16 to 18 hr by NCCLS agar dilution method
[30] = test system: Staphylococcus aureus; test: Antibacterial activity against Staphylococcus aureus clinical isolate 4 assessed as growth inhibition after 16 to 18 hr by NCCLS agar dilution method
[31] = test system: Staphylococcus aureus; test: Bactericidal activity against Staphylococcus aureus clinical isolate 5 after 24 hr; conditions: isolate 5, 24 h
[32] = test system: Staphylococcus aureus; test: Antibacterial activity against Staphylococcus aureus clinical isolate 1 assessed as growth inhibition after 16 to 18 hr by NCCLS agar dilution method
[33] = test system: Pseudomonas aeruginosa; test: Antibacterial activity against Pseudomonas aeruginosa ATCC 27853 assessed as growth inhibition after 16 to 18 hr NCCLS agar dilution method
[34] = test system: Staphylococcus aureus; test: Antibacterial activity against Staphylococcus aureus clinical isolate 5 assessed as growth inhibition after 16 to 18 hr by NCCLS agar dilution method
[35] = test system: Staphylococcus aureus; test: Antibacterial activity against Staphylococcus aureus clinical isolate 6 assessed as growth inhibition after 16 to 18 hr by NCCLS agar dilution method
[36] = test system: Staphylococcus aureus; test: Bactericidal activity against Staphylococcus aureus clinical isolate 8 after 24 hr; conditions: isolate 8, 24 h
[37] = test system: Staphylococcus aureus; test: Bactericidal activity against Staphylococcus aureus clinical isolate after 24 hr

Structure (SMILES)	MIC50 [2]	MIC90 [2]	MBC [3]	MIC [4]	MBC [5]	MBC [6]	MBC [7]	MBC [8]	MBC [9]	MIC [10]	MIC [11]	MIC50 [12]	MIC90 [12]	MBC50 [13]	MBC90 [13]	MBC [14]	MIC [15]	MBC [16]	MIC [17]	MBC [18]	other results
C[C@H]1COc2c(N3CCN(C)CC3)c(F)cc3c(=O)c(C(=O)O)cn1c23.C[C@H]1COc2c(N3CCN(C)CC3)c(F)cc3c(=O)c(C(=O)O)cn1c23.O [LEVOFLOXACIN]	0.25 µg/mL	0.5 µg/mL	0.5 µg/mL	0.5 µg/mL	0.25 µg/mL	> 16 µg/mL	0.5 µg/mL	0.5 µg/mL	0.5 µg/mL	0.25 µg/mL	8 µg/mL	16 µg/mL	> 16 µg/mL	>16 µg/mL	>16 µg/mL	0.5 µg/mL	16 µg/mL	> 16 µg/mL	> 16 µg/mL	> 16 µg/mL	MIC [1]: 0.025 µg/mL; MBC [19]: > 16 µg/mL; MIC [20]: 0.25 µg/mL; MBC [21]: 0.25 µg/mL; MIC [22]: 8 µg/mL; MBC [23]: > 16 µg/mL; MIC [24]: 0.25 µg/mL; MBC [25]: 0.5 µg/mL; MIC [26]: 16 µg/mL; MIC [27]: 0.25 µg/mL; MIC [28]: 0.5 µg/mL; MIC [29]: 0.25 µg/mL; MIC [30]: 0.25 µg/mL; MBC [31]: 0.25 µg/mL; MIC [32]: 0.25 µg/mL; MIC [33]: 0.5 µg/mL; MIC [34]: 0.125 µg/mL; MIC [35]: 0.5 µg/mL; MBC [36]: 0.25 µg/mL
CCCCCCCCCC(=O)CC=O [HOUTTUYNIN]	64 µg/mL (≈ 323 µM)	64 µg/mL (≈ 323 µM)	128 µg/mL (≈ 645 µM)	32 µg/mL (≈ 161 µM)	64 µg/mL (≈ 323 µM)	64 µg/mL (≈ 323 µM)	128 µg/mL (≈ 645 µM)	64 µg/mL (≈ 323 µM)	128 µg/mL (≈ 645 µM)	64 µg/mL (≈ 323 µM)	16 µg/mL (≈ 80.7 µM)	16 µg/mL (≈ 80.7 µM)	16 µg/mL (≈ 80.7 µM)	64 µg/mL (≈ 323 µM)	128 µg/mL (≈ 645 µM)	128 µg/mL (≈ 645 µM)	16 µg/mL (≈ 80.7 µM)	32 µg/mL (≈ 161 µM)	16 µg/mL (≈ 80.7 µM)	128 µg/mL (≈ 645 µM)	MBC [19]: 32 µg/mL (≈ 161 µM); MIC [20]: 64 µg/mL (≈ 323 µM); MBC [21]: 64 µg/mL (≈ 323 µM); MIC [22]: 16 µg/mL (≈ 80.7 µM); MBC [23]: 64 µg/mL (≈ 323 µM); MIC [24]: 32 µg/mL (≈ 161 µM); MBC [25]: 256 µg/mL (≈ 1290 µM); MIC [26]: 16 µg/mL (≈ 80.7 µM); MIC [27]: 64 µg/mL (≈ 323 µM); MIC [28]: 64 µg/mL (≈ 323 µM); MIC [29]: 64 µg/mL (≈ 323 µM); MIC [30]: 64 µg/mL (≈ 323 µM); MBC50 (60.1); MBC90 (60.2) ([37]; read-out: MIC50): 128 µg/mL (≈ 645 µM); MBC50 (60.1); MBC90 (60.2) ([37]; read-out: MIC90): 128 µg/mL (≈ 645 µM); MBC [31]: 128 µg/mL (≈ 645 µM); MIC [32]: 64 µg/mL (≈ 323 µM); MIC [34]: 32 µg/mL (≈ 161 µM); MIC [35]: 64 µg/mL (≈ 323 µM); MBC [36]: 128 µg/mL (≈ 645 µM)
